Like-named read-outs stand apart in the source and are kept apart here.
Molecular target: CaMKK2 (Homo sapiens, UniProt Q96RR4)
Assay: CaMKK2 binding assay (LanthaScreen TR-FRET)
Procedure: The ability of test compounds to bind and inhibit the activity of CaMKK2 were determined using a binding assay using LanthaScreent (Thermofisher) detection reagents in a 384-well plate format using the following assay buffer: 50 mM HEPES (pH7.5), 10 mM MgCl2, 1 mM EGTA, and 0.01% Brij-35.
A 10-point serial dilution of inhibitor compound in 0.5% DMSO was added to each well of the plate. The final assay volume in well was 15 uL. […] A ratio was calculated from the 2 readouts and fitted to a 4-parameter fit to determine the binding IC50.

Sequence of CaMKK2 (Q96RR4 whole entry): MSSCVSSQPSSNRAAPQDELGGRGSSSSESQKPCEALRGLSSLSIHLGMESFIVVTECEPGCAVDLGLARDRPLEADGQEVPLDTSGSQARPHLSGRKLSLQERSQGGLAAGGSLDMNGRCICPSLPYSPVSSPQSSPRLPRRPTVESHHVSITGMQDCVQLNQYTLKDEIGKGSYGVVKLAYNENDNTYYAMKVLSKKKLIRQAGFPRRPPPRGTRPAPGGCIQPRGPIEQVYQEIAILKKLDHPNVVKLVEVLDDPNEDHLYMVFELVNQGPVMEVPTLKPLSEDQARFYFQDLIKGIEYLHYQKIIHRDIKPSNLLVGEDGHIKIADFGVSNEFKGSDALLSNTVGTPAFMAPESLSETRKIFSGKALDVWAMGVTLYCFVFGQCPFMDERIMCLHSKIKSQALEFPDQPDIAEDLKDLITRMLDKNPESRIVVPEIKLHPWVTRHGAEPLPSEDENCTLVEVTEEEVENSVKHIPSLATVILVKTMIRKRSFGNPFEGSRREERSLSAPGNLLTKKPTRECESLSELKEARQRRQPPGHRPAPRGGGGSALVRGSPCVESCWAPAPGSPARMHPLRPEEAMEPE

| Molecule | IC50 (binding IC50, 1 nM CaMKK2, 5 nM Kinase tracer 236, 20 minutes) [nM] | IC50 [nM] |
| --- | --- | --- |
| 2-((azetidin-3-ylmethyl)amino)-4-(3-(3,5-dimethylphenyl)-5H-pyrrolo[2,3-b]pyrazin-5-yl)benzoic Acid [Example 30] | < 100 |  |
| Cc1cc(C)cc(-c2cnc3ccn(-c4ccc(C(=O)O)c(C5CCNC5)c4)c3n2)c1 (single isomer, unassigned) [Example 26] |  | < 100 |
| Cc1cc(C)cc(-c2cnc3ccn(-c4ccc(C(=O)O)c(C5CCCNC5)c4)c3n2)c1 (single isomer, unassigned) [Example 28] |  | < 100 |
| O=C(O)c1ccc(-c2ccnc3cc(C4CC4)nn23)cc1C1CCCC1 [Example 2.1, 2-Cyclopentyl-4-(2-cyclopropylpyrazolo[1,5-a]pyrimidin-7-yl)benzoic Acid] |  | < 100 |
| COc1cc2nccc(-c3ccc(C(=O)O)c(C4CCCC4)c3)n2n1 [Example 2.3, 2-Cyclopentyl-4-(2-methoxypyrazolo[1,5-a]pyrimidin-7-yl)benzoic Acid] |  | < 100 |
| CCOc1cc2nccc(-c3ccc(C(=O)O)c(C4CCCC4)c3)n2n1 [Example 2.4, 2-Cyclopentyl-4-(2-ethoxypyrazolo[1,5-a]pyrimidin-7-yl)benzoic Acid] |  | < 100 |
| O=C(O)c1ccc(-c2ccnc3cc(-c4ccc(F)cc4)nn23)cc1C1CCCC1 [Example 2.5, 2-Cyclopentyl-4-(2-(4-fluorophenyl)pyrazolo[1,5-a]pyrimidin-7-yl)benzoic Acid] |  | < 100 |
| O=C(O)c1ccc(-c2ccnc3cc(-c4cccc(F)c4)nn23)cc1C1CCCC1 [Example 2.7, 2-Cyclopentyl-4-(2-(3-fluorophenyl)pyrazolo[1,5-a]pyrimidin-7-yl)benzoic Acid] |  | < 100 |
| COc1ccc(-c2cc3nccc(-c4ccc(C(=O)O)c(C5CCCC5)c4)n3n2)cc1 [Example 2.8, 2-Cyclopentyl-4-(2-(4-methoxyphenyl)pyrazolo[1,5-a]pyrimidin-7-yl)benzoic Acid] |  | < 100 |
| COc1cccc(-c2cc3nccc(-c4ccc(C(=O)O)c(C5CCCC5)c4)n3n2)c1 [Example 2.9, 2-Cyclopentyl-4-(2-(3-methoxyphenyl)pyrazolo[1,5-a]pyrimidin-7-yl)benzoic Acid] |  | < 100 |
| Cn1cc(-c2cc3nccc(-c4ccc(C(=O)O)c(C5CCCC5)c4)n3n2)cn1 [Example 2.12, 2-Cyclopentyl-4-(2-(1-methyl-H-pyrazol-4-yl)pyrazolo[1,5-a]pyrimidin-7-yl)benzoic Acid] |  | < 100 |
| COc1cc(-c2ccnc3cc(-c4ccc(F)cc4)nn23)ccc1C(=O)N[C@H](CO)c1ccccc1 [Example 2.13, (S)-4-(2-(4-Fluorophenyl)pyrazolo[1,5-a]pyrimidin-7-yl)-N-(2-hydroxy-1-phenylethyl)-2-methoxybenzamide] |  | < 100 |
| Cc1cc(-n2cc3ncc(F)c(-c4ccc(C(=O)O)c(C5CCCC5)c4)c3n2)cc(C(F)(F)F)c1 [Example 3.8, 2-Cyclopentyl-4-(6-fluoro-2-(3-methyl-5-(trifluoromethyl)phenyl)-2H-pyrazolo[4,3-b]pyridin-7-yl)benzoic Acid] |  | < 100 |
| O=C(O)c1ccc(-c2c(F)cnc3cn(-c4cc(F)cc(Cl)c4)nc23)cc1C1CCCC1 [Example 3.10, 4-(2-(3-Chloro-5-fluorophenyl)-6-fluoro-2H-pyrazolo[4,3-b]pyridin-7-yl)-2-cyclopentylbenzoic Acid] |  | < 100 |
| Cc1cc(F)cc(-n2cc3ncc(F)c(-c4ccc(C(=O)O)c(C5CCCC5)c4)c3n2)c1 [Example 3.11, 2-Cyclopentyl-4-(6-fluoro-2-(3-fluoro-5-methylphenyl)-2H-pyrazolo[4,3-b]pyridin-7-yl)benzoic Acid] |  | < 100 |
| COc1cc(-n2cc3ncc(F)c(-c4ccc(C(=O)O)c(C5CCCC5)c4)c3n2)cc(C(F)(F)F)c1 [Example 3.13, 2-Cyclopentyl-4-(6-fluoro-2-(3-methoxy-5-(trifluoromethyl)phenyl)-2H-pyrazolo[4,3-b]pyridin-7-yl)benzoic Acid] |  | < 100 |
| O=C(O)c1ccc(-c2c(F)cnc3cn(-c4cc(F)cc(C(F)(F)F)c4)nc23)cc1C1CCCC1 [Example 3.14, 2-Cyclopentyl-4-(6-fluoro-2-(3-fluoro-5-(trifluoromethyl)phenyl)-2H-pyrazolo[4,3-b]pyridin-7-yl)benzoic Acid] |  | < 100 |
| O=C(O)c1ccc(-c2c(F)cnc3cn(-c4cc(Cl)cc(C(F)(F)F)c4)nc23)cc1C1CCCC1 [Example 3.15, 4-(2-(3-Chloro-5-(trifluoromethyl)phenyl)-6-fluoro-2H-pyrazolo[4,3-b]pyridin-7-yl)-2-cyclopentylbenzoic] |  | < 100 |
| COc1cc(-c2ccnc3cn(-c4ccc(F)cc4)nc23)ccc1C(=O)N[C@H](CO)c1ccccc1 [Example 3.19, (S)-4-(2-(4-fluorophenyl)-2H-pyrazolo[4,3-b]pyridin-7-yl)-N-(2-hydroxy-1-phenylethyl)-2-methoxybenzamide] |  | < 100 |

| Molecule | IC50 (binding IC50, 1 nM CaMKK2, 5 nM Kinase tracer 236, 20 minutes) [nM] | IC50 [nM] |
| --- | --- | --- |
| N#CNC(=O)c1ccc(-c2ccnc3cn(-c4ccc(F)cc4)nc23)cc1C1CCCC1 [Example 3.20, N-Cyano-2-cyclopentyl-4-(2-(4-fluorophenyl)-2H-pyrazolo[4,3-b]pyridin-7-yl)benzamide] |  | < 100 |
| O=C(O)c1ccc(-c2c(F)cnc3cn(-c4ccc(F)cc4)nc23)cc1NC1CC1 [Example 3.21, 2-(Cyclopropylamino)-4-(6-fluoro-2-(4-fluorophenyl)-2H-pyrazolo[4,3-b]pyridin-7-yl)benzoic Acid] |  | < 100 |
| Cc1cccc(-c2cnc3ccn(-c4ccc(C(=O)O)c(C5CCCC5)c4)c3n2)c1 [Example 4, 2-Cyclopentyl-4-(3-(m-tolyl)-5H-pyrrolo[2,3-b]pyrazin-5-yl)benzoic Acid] |  | < 100 |
| Cc1cccc(-c2cc3c(-c4ccc(C(=O)O)c(C5CCCC5)c4)ccnn3c2)c1 [Example 4.2, 2-Cyclopentyl-4-[6-(m-tolyl)pyrrolo[1,2-b]pyridazin-4-yl]benzoic Acid] |  | < 100 |
| O=C(O)c1ccc(-c2ccnn3cc(-c4ccccc4F)cc23)cc1C1CCCC1 [Example 4.3, 2-Cyclopentyl-4-[6-(2-fluorophenyl)pyrrolo[1,2-b]pyridazin-4-yl]benzoic Acid] |  | < 100 |
| Cn1ncc2cc(-c3cnc4ccn(-c5ccc(C(=O)O)c(NCC6CC6)c5)c4n3)c(F)cc21 [Example 8, 2-((Cyclopropylmethyl)amino)-4-(3-(6-fluoro-1-methyl-1H-indazol-5-yl)-5H-pyrrolo[2,3-b]pyrazin-5-yl)benzoic Acid] |  | < 100 |
| O=C(O)c1ccc(-n2ccc3ncc(-c4ccc(F)cc4F)nc32)cc1NC1CC1 [Example 10, 2-(Cyclopropylamino)-4-(3-(2,4-difluorophenyl)-5H-pyrrolo[2,3-b]pyrazin-5-yl)benzoic Acid] |  | < 100 |
| O=C(O)c1ccc(-n2ccc3ncc(-c4ccc(F)cc4)nc32)cc1NCC1CC1 [Example 11, 2-((Cyclopropylmethyl)amino)-4-(3-(4-fluorophenyl)-5H-pyrrolo[2,3-b]pyrazin-5-yl)benzoic Acid] |  | < 100 |
| CCNc1cc(-n2ccc3ncc(-c4ccc5c(cnn5C)c4)nc32)ccc1C(=O)O [Example 14, 2-(Ethylamino)-4-(3-(1-methyl-1H-indazol-5-yl)-5H-pyrrolo[2,3-b]pyrazin-5-yl)benzoic Acid] |  | < 100 |
| O=C(O)c1ccc(-n2ccc3ncc(-c4ccc(F)cc4)nc32)cc1NC1CC1 [Example 15, 2-(Cyclopropylamino)-4-(3-(4-fluorophenyl)-5H-pyrrolo[2,3-b]pyrazin-5-yl)benzoic Acid] |  | < 100 |
| CCNc1cc(-n2ccc3ncc(-c4ccc5cn(C)nc5c4)nc32)ccc1C(=O)O [Example 16, 2-(Ethylamino)-4-(3-(2-methyl-2H-indazol-6-yl)-5H-pyrrolo[2,3-b]pyrazin-5-yl)benzoic Acid] |  | < 100 |
| Cn1cc2ccc(-c3cnc4ccn(-c5ccc(C(=O)O)c(NCC6CC6)c5)c4n3)cc2n1 [Example 17, 2-((Cyclopropylmethyl)amino)-4-(3-(2-methyl-2H-indazol-6-yl)-5H-pyrrolo[2,3-b]pyrazin-5-yl)benzoic Acid] |  | < 100 |
| O=C(NS(=O)(=O)C(F)(F)F)c1ccc(-n2ccc3ncc(C4CC4)nc32)cc1C1CCCC1 [Example 21, 2-Cyclopentyl-4-(3-cyclopropyl-5H-pyrrolo[2,3-b]pyrazin-5-yl)-N-((trifluoromethyl)sulfonyl)benzamide] |  | 100 to 1000 |
| N#Cc1ccc(-n2ccc3ncc(-c4ccccc4)nc32)cc1C1CCCC1 [Example 22, 2-Cyclopentyl-4-(3-phenyl-5H-pyrrolo[2,3-b]pyrazin-5-yl)benzonitrile] |  | 1000 to 10000 |
| c1ccc(-c2cnc3ccn(-c4ccc(-c5nn[nH]n5)c(C5CCCC5)c4)c3n2)cc1 [Example 23, 5-(3-Cyclopentyl-4-(2H-tetrazol-5-yl)phenyl)-3-phenyl-5H-pyrrolo[2,3-b]pyrazine] |  | < 100 |
| Cc1cc(C)cc(-c2cnc3ccn(-c4ccc(C(=O)O)c(NC5CNC5)c4)c3n2)c1 [Example 25, 2-(azetidin-3-ylamino)-4-(3-(3,5-dimethylphenyl)-5H-pyrrolo[2,3-b]pyrazin-5-yl)benzoic Acid] |  | < 100 |
| Cc1cc(C)cc(-c2cnc3ccn(-c4ccc(C(=O)O)c(CC5CNC5)c4)c3n2)c1 [Example 27, 2-(azetidin-3-ylmethyl)-4-(3-(3,5-dimethylphenyl)-5H-pyrrolo[2,3-b]pyrazin-5-yl) benzoic Acid] |  | < 100 |
| Cc1cc(C)cc(-c2cnc3ccn(-c4ccc(C(=O)O)c(C5CCNCC5)c4)c3n2)c1 [Example 29, 4-(3-(3,5-dimethylphenyl)-5H-pyrrolo[2,3-b]pyrazin-5-yl)-2-(piperidin-4-yl)benzoic Acid] |  | < 100 |
| Cc1cc(C)cc(-c2cnc3ccn(-c4ccc(C(=O)O)c(N[C@@H]5CCNC5)c4)c3n2)c1 [Example 31, (R)-4-(3-(3,5-dimethylphenyl)-5H-pyrrolo[2,3-b]pyrazin-5-yl)-2-(pyrrolidin-3-ylamino)benzoic Acid] |  | < 100 |
